Results from patent US20080171893A1, “Isotopically labeled alpha-keto acids and esters” (Spectra Gases, Inc., priority 2006, published 2008).

Tests used:
[1] = Concentration study: stability of pyruvic acid solutions in water at higher concentrations; assay type: physicochemical; set-up: unit not given here; details: light, about 22° C. to about 26° C.
Protocol: Each of these commercial solutions were subjected to light for 6-weeks at temperatures ranging from about 22° C. to about 26° C. At each of the concentrations listed below, it was discovered that the pyruvic acid solutions were stable.

[2] = background statement; cited from earlier work
[3] = Titration of aqueous sample 4 with sodium hydroxide, composition by HPLC; assay type: physicochemical; details: sample 4 titrated with sodium hydroxide to pH of about 6.2
Description: The molarity of sample 4 was confirmed to be 0.025M by titrating the aqueous sample with sodium hydroxide. […] It was also discovered that at pHs greater than 5.8, such as at a pH of about 6.2, some of the pyruvic acid was present in the form of a dimerized sodium salt. […] As such, it was discovered that to minimize dimmer formation, it may be necessary to control the pH of [1-^13C]pyruvate solutions, and in particular, any aqueous solution should be maintained at a pH of about 6.5 or less, more preferably 6.0 or less, and even more preferably 5.8 or less.

[4] = Shelf storage stability of [1-^13C]pyruvic acid in water, by ^1H and ^13C NMR; assay type: physicochemical; details: 0.025M in water
Protocol: Samples of isotopically labeled [1-^13C]pyruvic acid, having Formula VI and synthesized as discussed immediately below, were subjected to various conditions as depicted in Table 1, in order to establish the compound's shelf storage stability.
The resulting [1-^13C]pyruvic acid was tested as follows in Table 1:
^1H and ^13C NMR spectra of the distilled [1-^13C]pyruvic acid in water (0.025M) were acquired at the onset of the study and prior to exposing the samples to the various conditions specified in Table 1. ^1H and ^13C NMR spectra were again acquired for each of the samples after being exposed to the aforementioned conditions on a weekly basis for 12-weeks. The spectra acquired after exposure were compared visually and appeared to remain unchanged as compared with the spectra acquired prior to exposure, i.e. the spectra were as expected for [1-^13C]pyruvic acid in water. As such, it was concluded that each of the samples were shelf stable. Similarly, ^1H and ^13C NMR spectra acquired after 17-weeks of exposure remained unchanged as compared with the spectra acquired prior to exposure.

[5] = Sample 1: −10° C., dark, NMR spectra unchanged
[6] = Sample 3: room temperature (about 22° C. to about 26° C.), dark
[7] = Sample 4: room temperature (about 22° C. to about 26° C.), light

| Structure (SMILES) | Stability after 6-weeks ([1]; concentration 2.3 in water) | Stability after 6-weeks ([1]; concentration 2.8 in water) | Stability after 6-weeks ([1]; concentration 3.8 in water) | Stability after 6-weeks ([1]; concentration 5.7 in water) | Stability after 6-weeks ([1]; concentration 11.3 in water) | Solubility in water [2] | Content of dimerized [1-^13C]pyruvate salt by HPLC [3] | Content of sodium [1-^13C]pyruvate by HPLC [3] [%] | Share of the pyruvic acid accounted for by the dimerized salt [3] | Shelf stability, 12 weeks [4, 5] | Shelf stability, 17 weeks [4, 5] | Shelf stability, 12 weeks ([4]; Sample 2: 4° C., dark) | Shelf stability, 17 weeks ([4]; Sample 2: 4° C., dark) | Shelf stability, 12 weeks [4, 6] | Shelf stability, 17 weeks [4, 6] | Shelf stability, 12 weeks [4, 7] | Shelf stability, 17 weeks [4, 7] |
| --- | --- | --- | --- | --- | --- | --- | --- | --- | --- | --- | --- | --- | --- | --- | --- | --- | --- |
| CC(=O)C(=O)O [Formula VIB, 2-oxopropanoic acid] | Stable | Stable | Stable | Stable | Stable | soluble in water |  |  |  |  |  |  |  |  |  |  |  |
| CC(=O)[13C](=O)O [[1-^13C]pyruvic acid] |  |  |  |  |  |  | 2-4% | 89 | 4-6% | Stable | Stable | Stable | Stable | Stable | Stable | Stable | Stable |
